# How the values were obtained:
# mice = assay: In vivo delivery of FLuc-mRNA lipid nanoparticle preparations in mice (IVIS imaging); set-up: In vivo IVIS / In vivo IVIS (liver) / In vivo IVIS (spleen): unit not given here
# Outline: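 FLuc-mRNA LNPs given intramuscularly into thigh rectus femoris or intravenously via tail vein, about 75 μL per mouse, 3 mice. D-Luciferin (200 μL, 15 mg/mL) injected i.p. 10–15 min before IVIS imaging at set times after dosing.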
# [1] = Potential characterization of nanoparticle preparations; format: physicochemical
# Description: 20 μL of the nucleic acid lipid nanoparticle solution (containing about 0.04 mg/mL mRNA) was taken and added with 780 μL of ultrapure water, used a pipette tip to gently blow and mix, and the potential of the nanopreparation was detected by Malvern particle sizer (model ZEN3700). 27.5 μL nucleic acid lipid nanoparticle solution (containing about 0.04 mg/mL mRNA) was taken and added with 200 μL ultrapure water. A pipette tip was used to gently blow the sample and mix well. The particle size of the nanopreparation was detected by Malvern Dynamic Light Scattering Instrument (Malvern Instruments Ltd., ZEN3700, UK). After the detection, the sample was recovered to an EP tube, and 600 μL of ultrapure water was added, gently blown with a pipette tip, and the potential of the nanopreparation was measured by a Malvern particle size meter.
# [2] = Osmotic pressure by freezing point osmometer; format: physicochemical; settings: formulation No. 1, molar ratio 1.50:20:33.50:45.00
# Description: 50 μL of the nucleic acid lipid nanoparticle solution (containing about 0.04 mg/mL mRNA) was taken and the osmotic pressure of the nanopreparation was detected by freezing point penetrometer (Gonotec GmbH, OSMOMAT 3000-D).
# A549 cells [3] = assay: Cell transfection assay (D-Luciferin), A549; format: cell-based
# Description: (§1) A549 cells were digested and collected the day before treatment and the cell concentration was adjusted to 2*10^5 cells/mL, 200 μL cell culture medium with a concentration of 2*10^5 cells/mL was added to the 96-well plate, resulting in approximately 4*10^4 cells per well in the 96-well plate. Digested and collected DC2.4 cells and adjusted the cell concentration to 1*10^5 cells/mL, added 200 μL cell culture medium with a concentration of 1*10^5 cells/mL to the 96-well plate, so that the number of cells per well in the 96-well plate is approximately 2*10^4. The cells were incubated in a cell culture incubator (Esco Micro Pte Ltd, Singapore, CLM-170B-8-NF) at 37° C. 5% CO2 for 24 h.
# (§2) On the day of cell treatment, the medium (Thermo Fisher Scientific) was aspirated from the 96-well plate, 200 μL of PBS was added to each well to rinse the cells and then the PBS (Thermo Fisher Scientific) was removed, and 180 μL of opti-MEM (Thermo Fisher Scientific) was added to each well of the treatment group.
# (§3) Different volumes of the preparation were taken and diluted by adding the buffer used for the preparation or the buffer used for dialysis, and four dosing concentrations were prepared for each preparation, and 20 μL of the diluted nanopreparation was added to each well of a 96-well plate (3 replicate wells for each concentration), and the dosing concentrations of the preparation were about 50 ng mRNA/well, 100 ng mRNA/well, 200 ng mRNA/well, and 300 ng mRNA/well, respectively.
# (§4) The 96-well cell culture plate was placed in a cell culture incubator and incubated at 37° C. 5% CO2 for 4 h. The medium was sucked up, and 200 μL of DMEM complete medium was added to each well and incubated for 20 h for detection.
# (§5) D-Luciferin (Biohub International Trade Co., Ltd.) stock solution (9900 μL of complete medium+100 μL of 25 mg/mL of D-Luciferin stock solution) was diluted with DMEM complete medium at 99:1 to make a working solution at the concentration of 250 μg/mL (25 μg per well).
# (§6) The 96-well cell culture plate was taken out and the supernatant was removed. Before imaging, the 96-well plate was added with 100 μL of D-Luciferin working solution, incubated at 37° C. for 5 min, and imaged and analyzed by the plate reader.
# A549 cells [4] = assay: Cytotoxicity assay (CCK-8), A549; format: cell-based
# Description: as §1, §2, §3, §4
# (§7) Diluted CCK-8 detection reagent (Shanghai Beyotime Biotechnology Co., Ltd.) masterbatch (900 μL complete medium+100 μL CCK-8 detection reagent) with DMEM complete medium at 9:1 to prepare CCK-8 working solution.
# (§8) Take out the 96-well cell culture plate and removed the supernatant. Before detection, the 96-well plate was added with 100 μL CCK-8 working solution, incubated in the cell culture incubator at 37° C. 5% CO2 for 2 h, and analyzed by plate reader. The cell viability was calculated to reflect the cytotoxicity.
# DC2.4 cells [5] = assay: Cell transfection assay (D-Luciferin), DC2.4; format: cell-based
# Description: as §1, §2, §3, §4, §5, §6
# DC2.4 cells [6] = assay: Cytotoxicity assay (CCK-8), DC2.4; format: cell-based; settings: formulation No. 2
# Description: as §1, §2, §3, §4, §7, §8
# [7] = Stability of LNP formulations after storage; format: physicochemical; settings: both formulations; physical stability and in vivo delivery efficiency
# Description: Excipients and/or cryoprotectants, such as sucrose, can be added to the nucleic acid lipid nanoparticle preparation obtained in step 6 or to the nucleic acid lipid nanoparticle preparation obtained after dialysis in step 7. As an example, 40% sucrose (Aladdin Reagent (Shanghai) Co., Ltd.) was added to the nucleic acid lipid nanoparticle preparation with the volume ratio of 3:1, which is mixed homogeneously to obtain nucleic acid lipid nanoparticle preparation containing 10% sucrose, and further aliquoted into ribozyme-free centrifuge tubes and stored in an ice box, 4° C., −20° C., and/or −80° C. refrigerator for later use. Physicochemical property measurement and in vivo effect validation of the lipid nanoparticles were performed after thawing and returning to room temperature after storage for the indicated time.
structure (smiles),measurement,setting,value
CCCCCCCCCCCCOC(=O)C(O)CN(CCCN1CCN(CCCN(CC(O)C(=O)OCCCCCCCCCCCC)CC(O)C(=O)OCCCCCCCCCCCC)CC1)CC(O)C(=O)OCCCCCCCCCCCC (stereo not shown) [Compound L0191],In vivo IVIS,"mice; Table 2, IM, whole body scan",8.97 × 10^7
same,In vivo IVIS (liver),"mice; Table 2, IV, liver",2.77 × 10^8
same,In vivo IVIS (spleen),"mice; Table 2, IV, spleen",1.03 × 10^8
same,In vivo IVIS,"mice; Table 4, IM",2.12 × 10^7
same,In vivo IVIS,"mice; Table 4, IV",9.64 × 10^8
same,in vivo delivery efficiency as compared to the benchmark compound SM102,"mice; certain formulations, Table 2",superior in vivo delivery efficiency
same,Zeta potential,"[1]; formulation No. 1, molar ratio 1.50:20:33.50:45.00",11.30 ± 0.69
same,Zeta potential,"[1]; formulation No. 2, molar ratio 1.50:11.50:38.50:48.50",12.67 ± 0.61
same,osmotic pressure,[2],2139
same,transfection efficiency (in words),"A549 cells [3]; all tested formulations, A549 and DC2.4 cells",high
same,A549 transfection/RLU,"A549 cells [3]; formulation No. 1 (1.50:20:33.50:45.00), 50 ng/well",61522.00 RLU
same,A549 transfection/RLU,"A549 cells [3]; formulation No. 1, 100 ng/well",80557.33 RLU
same,A549 transfection/RLU,"A549 cells [3]; formulation No. 1, 200 ng/well",81404.33 RLU
same,A549 transfection/RLU,"A549 cells [3]; formulation No. 1, 300 ng/well",84806.33 RLU
same,A549 transfection/RLU,"A549 cells [3]; formulation No. 2 (1.50:11.50:38.50:48.50), 50 ng/well",31491.33 RLU
same,A549 transfection/RLU,"A549 cells [3]; formulation No. 2, 100 ng/well",54866.67 RLU
same,A549 transfection/RLU,"A549 cells [3]; formulation No. 2, 200 ng/well",90775.67 RLU
same,A549 transfection/RLU,"A549 cells [3]; formulation No. 2, 300 ng/well",88154.33 RLU
same,cellular toxicity (in words),"A549 cells [4]; all tested formulations, even at high doses, e.g., 300 ng/well",low to no cellular toxicity
same,A549 cellular tox (% cells alive),"A549 cells [4]; formulation No. 1, 50 ng/well",103.42%
same,A549 cellular tox (% cells alive),"A549 cells [4]; formulation No. 1, 100 ng/well",105.39%
same,A549 cellular tox (% cells alive),"A549 cells [4]; formulation No. 1, 200 ng/well",103.90%
same,A549 cellular tox (% cells alive),"A549 cells [4]; formulation No. 1, 300 ng/well",103.50%
same,A549 cellular tox (% cells alive),"A549 cells [4]; formulation No. 2, 50 ng/well",103.82%
same,A549 cellular tox (% cells alive),"A549 cells [4]; formulation No. 2, 100 ng/well",105.86%
same,A549 cellular tox (% cells alive),"A549 cells [4]; formulation No. 2, 200 ng/well",109.06%
same,A549 cellular tox (% cells alive),"A549 cells [4]; formulation No. 2, 300 ng/well",104.35%
same,DC2.4 cell transfection/RLU,"DC2.4 cells [5]; formulation No. 1, 50 ng/well",44580.00 RLU
same,DC2.4 cell transfection/RLU,"DC2.4 cells [5]; formulation No. 1, 100 ng/well",38457.67 RLU
same,DC2.4 cell transfection/RLU,"DC2.4 cells [5]; formulation No. 1, 200 ng/well",51212.00 RLU
same,DC2.4 cell transfection/RLU,"DC2.4 cells [5]; formulation No. 1, 300 ng/well",49462.00 RLU
same,DC2.4 cell transfection/RLU,"DC2.4 cells [5]; formulation No. 2, 50 ng/well",22385.67 RLU
same,DC2.4 cell transfection/RLU,"DC2.4 cells [5]; formulation No. 2, 100 ng/well",31266.67 RLU
same,DC2.4 cell transfection/RLU,"DC2.4 cells [5]; formulation No. 2, 200 ng/well",45175.33 RLU
same,DC2.4 cell transfection/RLU,"DC2.4 cells [5]; formulation No. 2, 300 ng/well",66928.33 RLU
same,DC2.4 cellular tox (% cells alive),DC2.4 cells [6]; 50 ng/well,95.97%
same,DC2.4 cellular tox (% cells alive),DC2.4 cells [6]; 100 ng/well,87.33%
same,DC2.4 cellular tox (% cells alive),DC2.4 cells [6]; 200 ng/well,75.79%
same,DC2.4 cellular tox (% cells alive),DC2.4 cells [6]; 300 ng/well,92.20%
same,stability after storage under different conditions,[7],excellent stability
